From PMC9873307, “Methylone, a rapid acting entactogen with robust anxiolytic and antidepressant-like activity” (Frontiers in Psychiatry, 2023)
Read-outs that look alike come from different tables or passages of the source.

How the values were obtained:
[1] = Pharmacokinetics in plasma and brain after IP dosing; format: in vivo; settings: rat; for Kp: brain and plasma; for Kp / MRT last / half-life: ip
Experimental: Pharmacokinetics studies were carried out at WuXi Apptec, Inc. (Cranbury, NJ, USA) using standard protocols. All animal use and procedures were approved by the WuXi Apptec, Inc., IACUC. Briefly, terminal blood and brain samples were collected from 6 to 8 week old male Sprague Dawley rats (Hilltop Lab Animals, Inc., Scottsdale, PA, USA) at 0.25, 0.5, 1, 2, 4, and 8 h (N = 3 per group per time point) for the determination of plasma concentrations of methylone following intraperitoneal (IP) dosing of 5, 10, or 15 mg/kg methylone. Since these were terminal collections, three independent rats per group were used for each time point in a single PK curve from which PK parameters (Cmax, AUC, etc.) were generated. Samples were collected into K2EDTA tubes on ice and centrifuged at 3000 × g at 4°C for 5 min within 30 min of collection. Plasma samples were stored at −80°C until analysis by liquid chromatography tandem mass spectrometry (LC-MS/MS). The bioanalytical assay provided a lower limit of quantification (LLOQ) of 1 ng/mL and an upper limit of quantification (ULOQ) of 3000 ng/mL for methylone. The plasma concentration-time data were analyzed using Phoenix WinNonlin (version 8.3) to characterize the PK properties of the analyte. The non-compartmental analysis model and the linear/log trapezoidal method were applied to the calculation of the PK parameters.

[2] = test system: vesicular monoamine transporter 2 (VMAT2); set-up: method as in PMID 10528135; settings: compared with MDMA; cited from earlier work
mice = test system: mice; set-up: method as in PMID 23603357; settings: 3–4 doses of 25 mg/kg over a 2-day period, 3 days after dosing; cited from earlier work
brain serotonin = settings: repeated doses; cited from earlier work
healthy volunteers = settings: cited from earlier work
rodents = test system: rodents; set-up: method as in PMID 23839026, PMID 28882561, PMID 22509960, PMID 22922498; settings: cited from earlier work
[3] = test system: other 5-HT, NE, or DA receptors; set-up: method as in PMID 31063768; settings: cited from earlier work
PTSD patients = test system: PTSD patients; set-up: method as in earlier work; settings: retrospective clinical case series; cited from earlier work
[4] = binge-dosing regimen; cited from earlier work
male Sprague Dawley rats = assay: Open field test (OFT): locomotor activity and time in center; format: in vivo, rat
Experimental: Male Sprague Dawley rats (Charles River Laboratories) weighing 180–200 g on arrival, were used for all behavioral studies, which took place at Melior Discovery (Exton, PA, USA). Rats acclimated to their home cages for at least 1 week before testing, were maintained in a controlled environment on a 12 h light/dark cycle, with no more than 2 rats per cage. Animals received ad libitum access to standard rodent chow and water and were assigned randomly to treatment groups. All animal use and procedures were in accordance with established protocols approved by the Melior IACUC committee, Melior Standard Operation Procedures (SOP), and Transcend Therapeutics. Distinct cohorts of animals were used for each experiment/Figure presented in this manuscript.
Methylone HCl (0.5–30 mg/kg; Cayman Chemical) or Fluoxetine HCl (10 mg/kg; Sigma-Aldrich) were formulated in sterile 0.9% saline vehicle before IP administration. Control animals received saline vehicle. Methylone or saline was administered 30 min prior to FST or OFT testing sessions. Fluoxetine or saline were administered 23.5, 5, and 1 h prior to testing, consistent with previous studies ([19]).
All studies were performed by an experimenter blind to treatment group and according to standard protocols at Melior Discovery (Exton, PA, USA). The OFT was used to assess both locomotor activity and anxiety-like behavior. The OFT was run in a standard rat OFA chamber (17 ^^′′ × 17 ^^′′ × 12 ^^′′ , Med Associates). After habituation to the testing room and drug injection, rats were assessed for 30 min in the OFT using an automated activity monitoring system (MedAssociates). Locomotor activity was measured by recording the total ambulatory distance traveled (cm), reported in 5-min bins for the duration of the 30 min testing period. The center of the open field was defined as a 12 ^^′′ square, a predefined center setting on the MedAssociates analysis software. Time spent in the center of the open field, an anxiolytic measure, was also recorded for the 30 min testing period.

[5] = test system: serotonin receptor 1A (5-HTR1A); set-up: method as in PMID 23583454; settings: not all reports support activity ([43]); cited from earlier work
[6] = male, Sprague Dawley, plasma, 5 mg/kg IP
[7] = male, Sprague Dawley, plasma, 10 mg/kg IP
[8] = male, Sprague Dawley, plasma, 15 mg/kg IP

In the case of `CNC(C)C(=O)c1ccc2c(c1)OCO2` (stereo not shown) [methylone, 3,4-methylenedioxy-N-methylcathinone], the plasma concentration ([1]; after 5 mg/kg dose) was “approximately 8 μM”, the plasma concentration ([1]; after 10 mg/kg dose) was roughly 18 µM and the “AUC0–last” value ([1]; brain, 5 mg/kg IP) was 1661 ng·h/g. The Tlast ([1]; brain, 5 mg/kg IP) was 4.00 h, the “AUC0–last” value ([1]; brain, 10 mg/kg IP) was 5576 ng·h/g and the Tlast ([1]; brain, 10 mg/kg IP) was 4.00 h. For the same compound, the “AUC0–last” value ([1]; brain, 15 mg/kg IP) was 13201 ng·h/g, the Tlast ([1]; brain, 15 mg/kg IP) was 8.00 h and the Kp ([1]; male, Sprague Dawley, 5 mg/kg, 5 mg/kg IP, read-out: AUC ratio (brain: plasma)) was 1.83. For the same compound, the Kp ([1]; male, Sprague Dawley, 10 mg/kg, 10 mg/kg IP, read-out: AUC ratio (brain: plasma)) was 1.72, the Kp ([1]; male, Sprague Dawley, 15 mg/kg, 15 mg/kg IP, read-out: AUC ratio (brain: plasma)) was 1.8 and the Kp ([1]; male, Sprague Dawley, 15 mg/kg, across 5, 10, 15 mg/kg IP, read-out: brain to plasma AUC ratio) was roughly 1.8. For the same compound, the MRT last ([1]; male, Sprague Dawley, brain, 5 mg/kg, brain, 5 mg/kg IP, read-out: MRT0–last) was 41.8 min, the half-life ([1]; male, Sprague Dawley, brain, 5 mg/kg, brain, 5 mg/kg IP, read-out: T1/2 (converted)) was 41.5 min and the MRT last ([1]; male, Sprague Dawley, brain, 10 mg/kg, brain, 10 mg/kg IP, read-out: MRT0–last) was 61.8 min. For the same compound, the half-life ([1]; male, Sprague Dawley, brain, 10 mg/kg, brain, 10 mg/kg IP, read-out: T1/2 (converted)) was 36.4 min, the MRT last ([1]; male, Sprague Dawley, brain, 15 mg/kg, brain, 15 mg/kg IP, read-out: MRT0–last) was 60.6 min and the half-life ([1]; male, Sprague Dawley, brain, 15 mg/kg, brain, 15 mg/kg IP, read-out: T1/2 (converted)) was 53 min. It also gave an MRT last ([1]; male, Sprague Dawley, plasma, 5 mg/kg, plasma, 5 mg/kg IP, read-out: MRT0–last) of 40 min, a half-life ([1]; male, Sprague Dawley, plasma, 5 mg/kg, plasma, 5 mg/kg IP, read-out: T1/2 (converted)) of 35.9 min and an MRT last ([1]; male, Sprague Dawley, plasma, 10 mg/kg, plasma, 10 mg/kg IP, read-out: MRT0–last) of 64.2 min. The half-life ([1]; male, Sprague Dawley, plasma, 10 mg/kg, plasma, 10 mg/kg IP, read-out: T1/2 (converted)) was 40.4 min, the MRT last ([1]; male, Sprague Dawley, plasma, 15 mg/kg, across 5, 10, 15 mg/kg IP, read-out: mean residence time (MRT0–last)) was 42 to 67.8 min and the half-life ([1]; male, Sprague Dawley, plasma, 15 mg/kg, across 5, 10, 15 mg/kg IP, read-out: terminal elimination half-life (T1/2)) was 36 to 48 min. The MRT last ([1]; male, Sprague Dawley, plasma, 15 mg/kg, plasma, 15 mg/kg IP, read-out: MRT0–last) was 67.8 min, the half-life ([1]; male, Sprague Dawley, plasma, 15 mg/kg, plasma, 15 mg/kg IP, read-out: T1/2 (converted)) was 48.7 min and the Cmax ([1]; male, Sprague Dawley, brain, 5 mg/kg IP) was 3510 ng/g. For the same compound, the Cmax ([1]; male, Sprague Dawley, brain, 10 mg/kg IP) was 8020 ng/g, the Cmax ([1]; male, Sprague Dawley, brain, 15 mg/kg IP) was 20000 ng/g and the AUC(0-t) [1, 6] was 908 ng·h/mL. For the same compound, the Cmax [1, 6] was 1980 ng/mL, the AUC(0-t) [1, 7] was 3240 ng·h/mL and the Cmax [1, 7] was 4510 ng/mL. The AUC(0-t) [1, 8] was 7320 ng·h/mL, the Cmax [1, 8] was 8470 ng/mL and the Tmax ([1]; male, Sprague Dawley, plasma, 5, 10 or 15 mg/kg IP) was 15 min. The Tlast ([1]; plasma, 5 mg/kg IP) was 4.00 h, the Tlast ([1]; plasma, 10 mg/kg IP) was 8.00 h and the Tlast ([1]; plasma, 15 mg/kg IP) was 8.00 h. For the same compound, the “lower potency at VMAT2 than MDMA” value [2] was greater than 10 fold, the “immobility in the FST” value (mice) was “increased immobility” and the “depletion of brain serotonin” value (brain serotonin) was “do not deplete brain serotonin”. The “tolerability in two Phase 1 studies” value (healthy volunteers; healthy volunteers) was “well-tolerated”, the “tolerability in phase 1 clinical study” value (healthy volunteers; human doses approximately 100–150 mg) was “well tolerated, with no severe adverse events reported” and the “tolerability in clinical studies” value (healthy volunteers; human) was “well tolerated”. The locomotor activity (rodents) was “increase locomotor activity”, the “affinity for other 5-HT, NE, or DA receptors” value [3] was “weak, if any, affinity” and the “effect on symptoms of PTSD” value (PTSD patients) was “alleviates symptoms of PTSD”. The effect on anxiety [4] was “anxiogenic effects”, the “distance traveled, first 5 min” value (male Sprague Dawley rats; methylone 0.5–10 mg/kg IP, 30 min before, Figure 4C) was “did not affect locomotor activity” and the “distance traveled, first 5 min” value (male Sprague Dawley rats; methylone 0.5–30 mg/kg, retest 24 h post-dose, all groups, Figure 4D) was “locomotor activity returned to baseline”. The “time spent in the center” value (male Sprague Dawley rats; methylone 5–30 mg/kg, 30 min after dosing, 30 min test, Figure 5A) was “significantly increased time spent in the center”, the “distance traveled, first 5 min” value (male Sprague Dawley rats; methylone 15–30 mg/kg IP, 30 min before, Figure 4C) was “significantly increased distance traveled” and the “distance traveled over 30-min session, 5-min bins” value (male Sprague Dawley rats; methylone 15–30 mg/kg IP, Figure 4F) was “increased distance traveled for the duration of the testing session”. The “activity at 5-HTR1A” value [5] was “partial agonist”.
